Holding throughout (experiment): Kinase panel profiling at 1 µmol/L (MSA or IMAP), percentage inhibition
Common to all, as to assay type: biochemical

Experiment [1] concerns the target T1, panel of 255 wild-type kinases (Homo sapiens, UniProt O15264).
T1 sequence (O15264 1-365): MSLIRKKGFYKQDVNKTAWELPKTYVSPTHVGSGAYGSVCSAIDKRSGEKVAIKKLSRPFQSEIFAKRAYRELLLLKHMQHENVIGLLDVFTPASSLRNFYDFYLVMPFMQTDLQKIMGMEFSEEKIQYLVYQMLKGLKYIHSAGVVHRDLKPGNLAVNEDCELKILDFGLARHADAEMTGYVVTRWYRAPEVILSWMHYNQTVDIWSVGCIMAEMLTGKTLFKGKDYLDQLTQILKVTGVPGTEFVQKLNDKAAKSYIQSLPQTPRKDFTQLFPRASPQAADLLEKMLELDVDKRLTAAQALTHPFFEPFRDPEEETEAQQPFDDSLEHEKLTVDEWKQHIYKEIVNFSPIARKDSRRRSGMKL
As to conditions: p38δ; 1 µmol/L single concentration; read-out: %-inhibition, p38δ.

Experiment [2] concerns the target T2, panel of 255 wild-type kinases (Homo sapiens, UniProt O60285).
T2 sequence (O60285 1-661): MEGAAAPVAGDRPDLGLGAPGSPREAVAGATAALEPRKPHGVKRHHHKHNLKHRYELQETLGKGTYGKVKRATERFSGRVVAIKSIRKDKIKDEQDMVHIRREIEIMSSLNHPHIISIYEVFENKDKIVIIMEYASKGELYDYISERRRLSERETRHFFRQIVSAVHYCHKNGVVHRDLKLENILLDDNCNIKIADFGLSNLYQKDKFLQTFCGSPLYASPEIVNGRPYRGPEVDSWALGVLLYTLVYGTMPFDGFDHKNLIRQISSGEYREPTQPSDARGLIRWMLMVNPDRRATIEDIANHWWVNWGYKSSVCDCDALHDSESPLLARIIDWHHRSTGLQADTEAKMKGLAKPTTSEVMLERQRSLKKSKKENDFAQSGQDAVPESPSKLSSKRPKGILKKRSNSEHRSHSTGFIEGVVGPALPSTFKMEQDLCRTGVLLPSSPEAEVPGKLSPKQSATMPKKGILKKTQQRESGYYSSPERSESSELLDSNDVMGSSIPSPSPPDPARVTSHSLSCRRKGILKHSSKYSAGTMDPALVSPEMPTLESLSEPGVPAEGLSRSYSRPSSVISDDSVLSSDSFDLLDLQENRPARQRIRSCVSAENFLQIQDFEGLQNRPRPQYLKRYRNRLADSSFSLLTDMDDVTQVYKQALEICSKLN
As to conditions: NuaK1; 1 µmol/L single concentration; read-out: %-inhibition, NuaK1.

The target in experiment [3] is panel of 255 wild-type kinases (Homo sapiens, UniProt P22612). As to conditions: kinase PKACγ; 1 µmol/L single concentration; read-out: %-inhibition at 1 µmol/L, PKACγ.
Experiment [4] has as its target panel of 255 wild-type kinases (Homo sapiens, UniProt P27361). As to conditions: kinase Erk1; 1 µmol/L single concentration; read-out: %-inhibition at 1 µmol/L, Erk1.
Experiment [5] concerns the target T3, panel of 255 wild-type kinases (Homo sapiens, UniProt P30530).
T3 sequence (P30530 26-894): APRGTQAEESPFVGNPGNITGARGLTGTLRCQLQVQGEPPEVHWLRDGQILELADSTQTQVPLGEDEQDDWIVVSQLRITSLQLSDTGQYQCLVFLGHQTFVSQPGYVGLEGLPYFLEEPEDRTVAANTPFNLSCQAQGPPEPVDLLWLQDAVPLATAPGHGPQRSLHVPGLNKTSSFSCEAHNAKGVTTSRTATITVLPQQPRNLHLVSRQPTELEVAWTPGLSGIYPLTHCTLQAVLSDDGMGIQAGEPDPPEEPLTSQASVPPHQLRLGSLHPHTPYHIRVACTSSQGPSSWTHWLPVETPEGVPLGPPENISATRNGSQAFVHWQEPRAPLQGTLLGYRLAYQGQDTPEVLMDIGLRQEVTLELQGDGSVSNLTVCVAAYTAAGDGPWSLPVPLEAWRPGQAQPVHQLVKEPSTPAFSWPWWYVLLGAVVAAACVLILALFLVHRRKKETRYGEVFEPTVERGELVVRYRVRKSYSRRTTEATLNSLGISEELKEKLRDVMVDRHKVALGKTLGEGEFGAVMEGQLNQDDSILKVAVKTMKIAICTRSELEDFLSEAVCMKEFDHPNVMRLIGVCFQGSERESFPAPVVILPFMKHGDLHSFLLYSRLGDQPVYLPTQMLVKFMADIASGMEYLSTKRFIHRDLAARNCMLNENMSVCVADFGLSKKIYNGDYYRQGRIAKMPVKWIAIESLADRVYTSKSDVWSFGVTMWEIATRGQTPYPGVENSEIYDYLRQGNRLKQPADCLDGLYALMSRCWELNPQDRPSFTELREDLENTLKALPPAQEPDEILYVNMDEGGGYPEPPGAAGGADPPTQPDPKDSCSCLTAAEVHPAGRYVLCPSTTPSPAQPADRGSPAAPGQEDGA
As to conditions: AXL kinase assay; 1 µmol/L single concentration; read-out: %-inhibition AXL.

Experiment [6] addresses panel of 255 wild-type kinases (Homo sapiens, UniProt Q13627). As to conditions: kinase DYRK1A; 1 µmol/L single concentration; read-out: %-inhibition at 1 µmol/L, DYRK1A.
Experiment [7] concerns the target panel of 255 wild-type kinases (Homo sapiens, UniProt Q14289). As to conditions: kinase PYK2; 1 µmol/L single concentration; read-out: %-inhibition at 1 µmol/L, PYK2.
Experiment [8] deals with panel of 255 wild-type kinases (Homo sapiens, UniProt Q86V86). As to conditions: kinase PIM3; 1 µmol/L single concentration; read-out: %-inhibition at 1 µmol/L, PIM3.

As to `CCc1nc(C(N)=O)c(Nc2ccc(N3CCC(N4CCN(C)CC4)CC3)c(OC)c2)nc1NC1CCOCC1` [gilteritinib], the inhibition at 1 µM in experiment [1] worked out at 1.74%; in experiment [2] it was 98%; in experiment [3], 5.41%; in experiment [4], 1.85%; in experiment [5], 100%; in experiment [6], 18%. Moreover, the inhibition at 1 µM in experiment [7] was 93%; in experiment [8] it was 23%.
`CCN1CCN(c2ccc(Nc3cc(N(C)C(=O)Nc4c(Cl)c(OC)cc(OC)c4Cl)ncn3)cc2)CC1` [infigratinib]: the inhibition at 1 µM was -4% in experiment [1]; 8% in experiment [2]; -0.0435% in experiment [3]; -4% in experiment [4]; 30% in experiment [5]; -4% in experiment [6]. Moreover, the inhibition at 1 µM in experiment [7] amounted to 13%; in experiment [8], 0.254%.
For `O=C(Nc1cnn2ccc(N3CCC[C@@H]3c3cc(F)ccc3F)nc12)N1CC[C@H](O)C1` [larotrectinib], the inhibition at 1 µM in experiment [1] was -7%; in experiment [2], 13%; in experiment [3], -4%; in experiment [4], -14%; in experiment [5] it was 4.22%; in experiment [6], -4.7%. The inhibition at 1 µM is 5.34% in experiment [7] and -5.31% in experiment [8].
Take `CCN1C(=O)N(c2c(F)c(OC)cc(OC)c2F)Cc2cnc3[nH]c(CN4CCOCC4)cc3c21` [pemigatinib]: the inhibition at 1 µM was -6% in experiment [1]; -2.15% in experiment [2]; -3.56% in experiment [3]; -8.52% in experiment [4]; 4.45% in experiment [5]; -2.67% in experiment [6]. The inhibition at 1 µM in experiment [7] was 8%; in experiment [8] it was -8%.
For `FC(F)(F)c1ccc(CNc2ccc(Cc3c[nH]c4ncc(Cl)cc34)cn2)cn1` [pexidartinib], the inhibition at 1 µM in experiment [1] came out at 1.15%; in experiment [2] it was 8%; in experiment [3], 3%; in experiment [4], 2.66%; in experiment [5], 39%; in experiment [6], 8%. Moreover, the inhibition at 1 µM came out at 3% in experiment [7] and 4.68% in experiment [8].
As for `CO[C@]1(C(=O)N[C@@H](C)c2ccc(-n3cc(F)cn3)nc2)CC[C@H](c2nc(C)cc(Nc3cc(C)[nH]n3)n2)CC1` [pralsetinib], the inhibition at 1 µM in experiment [1] is 0.0555%; in experiment [2] it was 91%; in experiment [3] it was 10%; in experiment [4] it was -3%; in experiment [5] it was 92%; in experiment [6], -3%. In addition, the inhibition at 1 µM in experiment [7] is 64%; in experiment [8], -0.165%.
`CCn1c(=O)c(-c2cc(NC(=O)Nc3ccccc3)c(F)cc2Br)cc2cnc(NC)cc21` [ripretinib]: the inhibition at 1 µM is -0.186% in experiment [1]; 4.32% in experiment [2]; 2.69% in experiment [3]; 2.79% in experiment [4]; 4% in experiment [5]; 1.4% in experiment [6]. Moreover, the figures for the inhibition at 1 µM in experiment [7] and in experiment [8] were 19% and 1.11%, respectively.
For the compound `COc1ccc(CN2C3CC2CN(c2ccc(-c4cc(OCC(C)(C)O)cn5ncc(C#N)c45)cn2)C3)cn1` [selpercatinib], the inhibition at 1 µM is -6.33% in experiment [1]; 10% in experiment [2]; -2.63% in experiment [3]; -7.44% in experiment [4]; 93% in experiment [5]; 6% in experiment [6]. Moreover, the inhibition at 1 µM in experiment [7] is 12%; in experiment [8], -2.65%.
For `Cn1cnc2c(F)c(Nc3ccc(Br)cc3Cl)c(C(=O)NOCCO)cc21` [selumetinib], the inhibition at 1 µM in experiment [1] was -4%; in experiment [2], 6%; in experiment [3] it was -4%; in experiment [4], -4.67%; in experiment [5] it was 26%; in experiment [6], -3.48%. Further, the values for the inhibition at 1 µM in experiment [7] and in experiment [8] were -0.622% and -0.0221%, respectively.
Regarding `Cc1cc(Nc2ncnc3ccc(NC4=NC(C)(C)CO4)cc23)ccc1Oc1ccn2ncnc2c1` [tucatinib], the inhibition at 1 µM was -0.0555% in experiment [1]; 9% in experiment [2]; -0.548% in experiment [3]; -2.6% in experiment [4]; 22% in experiment [5]; -3.25% in experiment [6]. In addition, the inhibition at 1 µM in experiment [7] was 1.48%; in experiment [8], -1.3%.
Turning to `C=CC(=O)N1CCC([C@@H]2CCNc3c(C(N)=O)c(-c4ccc(Oc5ccccc5)cc4)nn32)CC1` [zanubrutinib], the inhibition at 1 µM in experiment [1] was -6.43%; in experiment [2], -7%; in experiment [3] it was -4.62%; in experiment [4] it was -9%; in experiment [5] it was 4.56%; in experiment [6], -4.37%. Besides, the inhibition at 1 µM was 5.37% in experiment [7] and -8% in experiment [8].

The values are drawn from publication PMC9516332 (Frontiers in Oncology, 2022).
